Measurements: article PMC11641657, “Innovative Approaches to Fucoxanthin Delivery: Characterization and Bioavailability of Solid Lipid Nanoparticles with Eco-Friendly Ingredients and Enteric Coating” (International Journal of Molecular Sciences, 2024)

How the values were obtained:
[1] = Dispersion in ultra-pure water; format: physicochemical; conditions: visual
[2] = Morphology by TEM and SEM; format: physicochemical; conditions: in aqueous medium
Experimental: The samples were analyzed by means of a transmission electron microscopy (TEM) (Thermo Scientific Talos F200C) operating at 80 KV. For TEM analysis, the samples were placed on copper grids XP-UC300 (Shanghai X-Pivot Optoelectronic Technology Co., Ltd., Shanghai, China). Scanning Electron Microscopy (SEM) was used to determine the structure of the lyophilized FN–SLN. FN–SLN was dispersed in water and spread on a double-sided conducting adhesive tape, then was pasted on a metallic stub. After drying, it was coated ([…]) with gold in a sputter coating unit for […] using an accelerated voltage of 15 KeV.

[3] = In vivo pharmacokinetics test, oral dosing, FNOH in plasma by LC-MS/MS; conditions: after oral 10 mg/kg, parent FN
Experimental: The qualification and quantification of FN and FNOH in plasma samples was conducted using Nexera LC-40 (Shimadzu UPLC, Kyoto, Japan) coupled with AB 6500+ Q-trap mass spectrometry (ABSCIEX, Framinham, MA, USA), which was equipped with electrospray ionization (ESI). The mobile phase was composed of H2O (A: 0.1% formic acid and acetonitrile (B, 0.1% formic acid; A:B = 10:90, v/v) at a flow rate of 0.35 mL/min, and the injection volume was 5 µL. The analysis utilized a Kinetex EVO C18 column (2.1 mm × 100 mm, 2.6 μm) Phenomenex, Torrance, CA, USA), which was maintained at a temperature of 25 °C. The detection of the compounds (Table 6) was performed in positive ion mode under the following conditions: curtain gas at 35.0 L/h, collision gas medium, ion spray voltage at 5000 V, temperature at 400 °C, and ion source gases 1 and 2 both at 55 L/h. […] The data was acquired using AB Analyst 1.6.1 software (ABSCIEX, USA).
They were provided with standard rat chow and water and libitum throughout the study. The rats were acclimatized to the laboratory environment for 7 days prior to the start of the experiment to minimize stress-induced effects. […]
The plasma drug concentration data were fitted using a non-compartmental model, and pharmacokinetic parameters were calculated via Phoenix WinNonlin 8.1 (Certara Corporation, Princeton, NJ, USA).

[4] = In vitro dissolution test with enteric-coated capsule (SGF then SIF); format: physicochemical
Experimental: In this study, 7.8 mg of FN–SLNs and FN crystals were encapsulated in separate enteric-coated capsules. The capsules were placed in a glass bottle containing 2 mL of SGF and maintained at 37 °C, stirring at 120 rpm for the first 2 h. During this period, 100 µL samples were collected at predetermined intervals to assess the dissolution profiles of both formulations. Each time a sample was taken, 100 µL of the corresponding fluid was added to maintain the total volume. […] Following this, the SGF was replaced with 2 mL of SIF, and sampling continued at specified intervals. After each sampling, the collected solutions were centrifuged for 2 min (5000 rpm, 4 °C) to separate any undissolved particles. The supernatants were then extracted using methanol, allowing for the quantification of FN using high-performance liquid chromatography (HPLC).

[5] = design: method as in PMID 11694619; conditions: one of the lowest among studied carotenoids; cited from earlier work
[6] = In vitro release study (dialysis cassette, SGF then SIF); format: physicochemical; conditions: 2 h SGF then SIF, 37 °C
Experimental: A 3 mL dispersion of solid lipid nanoparticles (SLNs) and fucoxanthin (FN) crystal at a concentration of 1 mg/mL/FN was placed in separate dialysis cassettes (Slide-A-Lyzer, Thermo Fisher Scientific, USA) with a molecular weight cutoff (MWCO) of 20 KDa. Each cassette was then immersed in 120 mL of release medium, consisting of 60% ethanol and 40% SGF, and maintained at 37 °C with a stirring speed of 120 rpm for the first 2 h. An appropriate amount of ethanol is necessary to be added to improve the release of FN in a water-based environment. Two hours later, SGF was replaced with SIF. Samples of 10 µL were periodically withdrawn from the internal compartment of the dialysis cassette, using methanol for extraction and dilution to determine the concentration of fucoxanthin. The remaining FN% was calculated with the following equation:(3) Releasing FX%=(1−Mt/M0)×100% where: M0 is the initial amount of FN, and Mt is the amount of FN calculated at a given incubation time.

CC(=O)O[C@H]1CC(C)(C)C(=C=C/C(C)=C/C=C/C(C)=C/C=C/C=C(C)/C=C/C=C(\C)C(=O)C[C@@]23O[C@]2(C)C[C@@H](O)CC3(C)C)[C@](C)(O)C1 [FN, Fucoxanthin]
Dispersion in water [1]: inadequate | Overall average length of crystals [2]: exceeding 5 µm | Concentration of FN in rat plasma [3]: below the lowest limit of quantitation | Release rate throughout the 8-h observation period [4]: consistently low release rate | Bioavailability [5]: ~ 50 pmol/mg protein | Highest release rate in SGF and SIF [6]: 2.88%
